# Experimental data: patent publication US11674965B2, “Method for preparing and analyzing fluorescent compounds in plasma” (MediBeacon, Inc., priority 2017, dated 2023)
# How the values were obtained:
# [1] = Pharmacokinetic analysis of MB-102 in plasma of clinical study participants, iohexol co-dosed as reference marker; assay type: in vivo, human
# Procedure: (§1) For the samples being analyzed by direct dilution, 10 μL of plasma sample (thawed to room temperature and mixed thoroughly) was diluted with 990 μL 1×PBS, mixed thoroughly for about 10 minutes, and centrifuged at 1000 rpm for 2 minutes. It was directly analyzed by HPLC.
# Analyses were performed on a Waters Acquity UPLC H Class Chromatography System, equipped with column heater, sample heater/cooler, vacuum degasser, autosampler, fluorescence detector, and pump capable of delivering a binary gradient. An HPLC analytical column, Phenomenex Luna C18 (2), 4.6×250 mm, 5 μm, 100 Å (Phenomenex, Cat. No. 00G-4252-E0, S/N H15-133556), and a Security Guard Cartridge C18, 4×3 mm ID, 5 μm (Phenomenex, Cat. No. KJ0-4282) were used for the analysis. The Waters Empower 3 software equipped with the UPLC system was used for assay setup, analysis monitoring, and data processing. Two mobile phases, Mobile Phase A: 0.1% Trifluoroacetic acid in water (Fisher, Optima® Grade) and Mobile Phase B: 0.1% Trifluoroacetic acid in acetonitrile (Fisher Scientific, Optima® Grade) were used. […]
# In support of the clinical studies to evaluate the utility of MB-102 for kidney function monitoring via transdermal fluorescence sensing, the plasma samples were prepared from blood samples collected at 0, 5, 10, 15, 30, 60, 90, 120, 180, 240, 300, 360, 480, 600, and 720 minutes of each study participant. […]
# [2] = Freeze/thaw stability of MB-102 in plasma samples (three cycles, −80° C. to room temperature), HPLC with fluorescence detection; assay type: physicochemical, human; settings: for % Recovered / Mean Concentration: 3 Freeze/Thaw cycles
# Procedure: (§2) For sample preparation by direct dilution, calibration standards containing 0.4, 1.0, 2.0, 4.0, 10.0, 16.0, 40.0, 100.0, 200.0, 400.0 ng/mL and quality controls at low, mid, and high level of MB-102 were prepared in 1% human plasma in PBS on the day of the validation study or sample analysis. The MB-102 dosing solution (18.6 mg/mL) used in the clinical study was diluted 1/100 first with 1% human plasma in PBS to form a stock solution of 186 μg/mL MB-102. This stock solution is diluted further with 1% human plasma in PBS to form a calibration standard working stock of 2000 ng/mL MB-102 for preparation of calibration standards. A QC working stock at (300 ng/mL) was also prepared from the 186 μg/mL MB-102 stock by dilution with 1% plasma in PBS. The low, mid, and high levels of quality controls were prepared from this QC working stock by dilution with 1% human plasma in PBS.
# as §1
# (§3) Analyses were performed on a Waters Acquity UPLC H Class Chromatography System, equipped with column heater, sample heater/cooler, vacuum degasser, autosampler, fluorescence detector, and pump capable of delivering a binary gradient. An HPLC analytical column, Phenomenex Luna C18 (2), 4.6×250 mm, 5 μm, 100 Å (Phenomenex, Cat. No. 00G-4252-E0, S/N H15-133556), and a Security Guard Cartridge C18, 4×3 mm ID, 5 μm (Phenomenex, Cat. No. KJ0-4282) were used for the analysis. The Waters Empower 3 software equipped with the UPLC system was used for assay setup, analysis monitoring, and data processing. Two mobile phases, Mobile Phase A: 0.1% Trifluoroacetic acid in water (Fisher, Optima® Grade) and Mobile Phase B: 0.1% Trifluoroacetic acid in acetonitrile (Fisher Scientific, Optima® Grade) were used. The column temperature was set at 30° C., the autosampler temperature was set at 5° C., the excitation wavelength was set at 434 nm and the detection/emission wavelength was set at 556 nm. The counting rate was set at 5 point/sec; the PMT gain was set at 50; the flow cell temperature was ambient; the injection volume was 10 μL. MB-102 elutes at about 3.6 minutes using the gradient shown.
# (§4) Using this HPLC method and sample preparation described herein, a validation study was carried out to determine the precision, accuracy, linearity, reproducibility, plasma and sample solution stability, freeze-thaw stability, lowest limits of quantitation, and specificity. The acceptance criterion was ±15% data deviation from normal values excepted at the lowest limit of quantitation (LLOQ) where it was set at ±20%. Samples were analyzed both in-house and at a GMP contract lab to ensure both the validity of the method and accuracy of the results.
# (§5) MB-102 stability during sample handling upon long term storage of plasma samples (frozen at −80° C.) and short-term storage (bench top ambient temperature with/without light exposure, and 2-8° C.) of plasma solution was evaluated. Plasma samples were tested for three freeze/thaw cycles (−80° C. to room temperature). The stability of MB-102 in plasma solution at room temperature with/without light exposure, at 2-8° C., and at auto-sampler temperature (5° C.) was evaluated for time intervals of 24 and 48 hours.
# [3] = Short-term stability of MB-102 in plasma solution (1% plasma/PBS) at 4° C. or room temperature with/without light, HPLC with fluorescence detection; assay type: physicochemical, human
# Procedure: as §2, §1, §3, §4, §5
# [4] = cited from earlier work
# [5] = QCs stored at 4° C. for 48 hours, MB-102 3.7 ng/mL
# [6] = QCs stored at 4° C. for 48 hours, MB-102 37.9 ng/mL
# [7] = QCs stored at 4° C. for 48 hours, MB-102 372.6 ng/mL
# [8] = QCs stored at RT with light, MB-102 3.7 ng/mL
# [9] = QCs stored at RT with light, MB-102 37.9 ng/mL
# [10] = QCs stored at RT with light, MB-102 372.6 ng/mL
# [11] = QCs stored at RT without light, MB-102 3.7 ng/mL
# [12] = QCs stored at RT without light, MB-102 37.9 ng/mL
# [13] = QCs stored at RT without light, MB-102 372.6 ng/mL
# [14] = Sample solution at 4° C. for 48 hours, MB-102 1.76 ng/mL
# [15] = Sample solution at 4° C. for 48 hours, MB-102 8.81 ng/mL
# [16] = Sample solution at 4° C. for 48 hours, MB-102 61.87 ng/mL
structure (smiles),measurement,setting,value
"Nc1nc(C(=O)N[C@H](CO)C(=O)O)c(N)nc1C(=O)N[C@H](CO)C(=O)O [MB-102, (2R,2′R)-2,2′-((3,6-diaminopyrazine-2,5-dicarbonyl)bis(azanediyl))bis(3-hydroxypropanoic acid)]",clearance rate,"[1]; 12 subjects, FIG. 7",varies among patients
same,clearance rate compared with iohexol,"[1]; three subjects, iohexol co-dosed, FIGS. 8a-8c",parallel to that of iohexol
same,% Recovered,[2]; MB-102 1.76 ng/mL,101.7%
same,Mean Concentration,[2]; MB-102 1.76 ng/mL,1.79 ng/mL
same,% Recovered,[2]; MB-102 8.81 ng/mL,100.0%
same,Mean Concentration,[2]; MB-102 8.81 ng/mL,8.81 ng/mL
same,% Recovered,[2]; MB-102 61.87 ng/mL,100.8%
same,Mean Concentration,[2]; MB-102 61.87 ng/mL,62.34 ng/mL
same,stability over freeze/thaw cycles,"[2]; three freeze/thaw cycles, plasma at −80° C.",very stable
same,% Recovered,[3]; [5],101.1%
same,Mean Concentration,[3]; [5],3.74 ng/mL
same,% Recovered,[3]; [6],99.1%
same,Mean Concentration,[3]; [6],37.55 ng/mL
same,% Recovered,[3]; [7],100.2%
same,Mean Concentration,[3]; [7],373.50 ng/mL
same,% Recovered,[3]; [8],101.6%
same,Mean Concentration,[3]; [8],3.76 ng/mL
same,% Recovered,[3]; [9],96.0%
same,Mean Concentration,[3]; [9],36.40 ng/mL
same,% Recovered,[3]; [10],97.9%
same,Mean Concentration,[3]; [10],364.59 ng/mL
same,% Recovered,[3]; [11],104.6%
same,Mean Concentration,[3]; [11],3.87 ng/mL
same,% Recovered,[3]; [12],98.0%
same,Mean Concentration,[3]; [12],37.15 ng/mL
same,% Recovered,[3]; [13],100.0%
same,Mean Concentration,[3]; [13],372.58 ng/mL
same,% Recovered,[3]; [14],99.4%
same,Mean Concentration,[3]; [14],1.75 ng/mL
same,% Recovered,[3]; [15],98.3%
same,Mean Concentration,[3]; [15],8.66 ng/mL
same,% Recovered,[3]; [16],98.3%
same,Mean Concentration,[3]; [16],60.84 ng/mL
same,degradation of MB-102,[3]; solution stored at room temperature with light for 48 hours,1-2%
same,sample solution stability,[3]; stored at 4° C. for up to 48 hours,very stable
same,sample solution stability,[3]; stored at room temperature without light for up to 48 hours,very stable
"CC(=O)N(CC(O)CO)c1c(I)c(C(=O)NCC(O)CO)c(I)c(C(=O)NCC(O)CO)c1I (centres unmarked) [Iohexol, iohexol]",metabolism,[4]; patient,not metabolized
same,route of elimination,[4]; without tubular renal secretion or reabsorption,entirely eliminated by simple glomerular filtration
